From patent US20130064794A1, “Substituted Carbonyloxymethylphosphoramidate Compounds and Pharmaceutical Compositions for the Treatment of Viral Infections” (IDENIX PHARMACEUTICALS, INC., priority 2011, published 2013)

Assays:
[1] = Stability in simulated intestinal fluid (SIF); assay type: in vitro ADME; settings: 100 μM, 2 hours at 37° C.
Experimental: Simulated gastric and intestinal fluids containing pepsin and pancreatin respectively were prepared according to the U.S. Pharmacopoeia USP291 procedure (www.pharmacopeia.cn/v29240/usp29nf24s0_ris1s126.html). Test compound (final concentration 100 μM) was incubated in duplicate in the appropriate fluid for 2 hours at 37° C. The samples were quenched with 200 μl cold acetonitrile, vortexed for 30 seconds and then centrifuged at 16,100 g for 10 min. The supernatants were analyzed by HPLC on a C-18 column with UV detection at 252 nm. The time 0 samples were prepared by adding SGF or SIF fluid to the quenching solvent followed by the test compound. Stability of the compound was determined by peak area the test compound after incubation and calculated as percent of the peak area observed at time zero.

[2] = Stability in human liver S9 fraction (HLS9); assay type: in vitro ADME; settings: 10 μM, 1.0 mg/mL protein, NADPH, 60 min
Experimental: (§1) Stability of Compound 1 and its diastereomer were determined in subcellular fractions (microsomes and S9) of human liver and intestine in duplicate for each matrix. Pooled liver and intestinal microsomal, intestinal and liver S9 proteins (1.0 mg/mL), suspended in incubation buffer (100 mM potassium phosphate, pH 7.4, 5 mM MgCl2, and 0.1 mM EDTA), were preincubated for 5 min at 37° C. with 10 μM of a test compound from a 10 mM stock solution in DMSO (final DMSO concentration was 0.1%); the reaction was initiated by the addition of NADPH (3 mM final concentration). At specific times (0 and 60 min), 0.1 mL samples were taken and the reaction terminated by the addition of 4 volumes of stop solution (acetonitrile with 500 ng/mL carbutamide as an internal standard). The samples were vortexed for 30 sec and then centrifuged at 16,000 g for 10 min. 100 μL of supernatants were transferred to 96 deep-well plates preloaded with 100 μL distilled water and analyzed after mixing by LC-MS/MS. The MS peak area ratio of the test compound versus the internal standard was calculated and percent unchanged test compound over 60 minutes was calculated using this ratio.

[3] = Stability in HIS9 (intestinal S9); assay type: in vitro ADME, human; settings: 10 μM, 1.0 mg/mL protein, NADPH, 60 min
Experimental: HLM=Human liver microsome; HIM=Human intestinal microsome; HLS9=Human liver S9 fraction; HIS9=Human […] S9 fraction; SGF=Simulated gastric fluid; SIF=Simulated intestinal fluid.
as §1

mouse hepatocytes = assay: Release of active metabolite in mouse hepatocytes; assay type: in vitro ADME; settings: 10 μM test compound
Experimental: Plates of fresh human and mouse hepatocytes were obtained on ice. The medium was removed and replaced with hepatocyte culture medium (William's E supplemented with penicillin-streptomycin, 1% L-glutamine, 1% insulin-transferrin-selenium and 0.1 μM Dexamethasone (Invitrogen) or with Invitro GRO HI medium complemented with Torpedo antibiotics (Celsis)). Cells were left overnight in an incubator at 37° C. to acclimatize to culture and the medium.
Hepatocyte incubations were conducted at a final volume of 0.5 mL hepatocyte culture medium/well (0.8 million cells/well for human and 0.5 million cells/well for mouse; 12 well plate no overlay, collagen coat). Culture medium from overnight incubation of cells was removed and replaced with fresh medium, pre-warmed to 37° C., containing 10 μM of the test compound from a stock solution in DMSO (final DMSO concentration was 0.1%). At each specific time point, incubation medium was removed and cell monolayers were carefully washed two times with ice-cold PBS. Following the last wash, all PBS was carefully removed and 1.0 mL of extraction solution (ice-cold 70% methanol/30% water) added. Cells were scraped off and suspended in the extraction solution, transferred to 2 mL polypropylene microfuge tubes and intracellular contents extracted overnight at −20° C.
After the overnight treatment the cellular extracts were prepared by centrifugation at 16,000×g for 10 min to remove cellular debris. The remaining sample was then dried using a refrigerated centrivap concentrator. Dry extracts were reconstituted in 1000 μL of HPLC-grade water and centrifuged at 16,000×g for 10 min. Aliquots (100 μL each) of the supernatant were transferred into a 96 well plate and 2′-C-methyl-adenosine 5′-triphosphate, trisodium salt (4 ng/mL final concentration) was added as the internal standard (1S) for LC-MS/MS analysis.
The incubation time points were 6, 24 and 48 hours for human hepatocytes and 1, 4, 8, 12 and 24 hours for mouse hepatocytes.

[4] = Plasma and liver pharmacokinetics following a single oral dose in CD-1 mice; assay type: in vivo; settings: single oral dose in PEG 200, value at 1 μmol/kg; for Ms 2′-F, 2′-MeGTP AUC: mouse liver; for Ms Plasma 2′-F, 2′-MeG AUC / Ms Plasma 2′-F, 2′-MeG Cmax: mouse plasma
Experimental: A single oral dose of Compound 1 at 25 mg/kg in PEG 200 (dose volume 5 mL/kg) was administered to nine CD-1 male mice. Five untreated animals were used for the collection of control plasma and liver. Terminal plasma and liver samples were collected from three animals per time point at 4, 12 and 24 hours post dose. Liver specimens were collected from all animals immediately after the incision. Freezing forceps stored in liquid nitrogen were used to freeze the liver before excision.
Plasma samples were analyzed for 2′-methylguanosine (2′-MeG) by LC-MS/MS. The internal standard (1S) was 2′-MeG-D3. For protein precipitation and extraction, each plasma sample (50 μL) was treated with 500 μL of 0.2% formic acid in acetonitrile and 20 μL of the internal standard working solution. After vortexing and centrifugation, 500 μL of the sample extracts were transferred to a new plate, dried under N2 at ˜28° C. and reconstituted with 75 μL of 0.2% FA in water. The extracts were chromatographed on an Aquasil C18 column using a gradient system of 0.2% formic acid in water and acetonitrile. The analytes were detected and quantified by tandem mass spectrometry in positive ion mode on an MDS Sciex API5000 equipped with a Turbo Ionspray® interface. The calibration range was 0.500 (LLOQ) to 200 ng/mL in mouse plasma. The corresponding range for molar units is 1.68 to 673 pmol/mL.
Liver samples were analyzed for the active species 2′-methylguanosine triphosphate (2′-MeGTP) by LC-MS/MS. 2′-F, 2′-MeGTP levels were assayed by homogenizing (on ice) a known weight of mouse liver with 4× volume of 0.95 M trichloroacetic acid (TCA). Internal standard solution was added to the homogenate followed by neutralization with 20% ammonium hydroxide solution and addition of 500 μL 1% formic acid. The tissue samples were extracted by weak anion exchange solid phase extraction (SPE). Post extraction, the eluates were evaporated under nitrogen, followed by reconstitution before injection onto the LC-MS/MS system. The samples were chromatographed on a Luna NH2 column using a gradient system of ammonium acetate (1 mM to 20 mM and pH 8.0 to pH 10.0) in water and acetonitrile (70:30). The analyte was detected and quantified by tandem mass spectrometry in positive ion mode on an API4000 equipped with a Turbo Ionspray® interface. The calibration range was 10 to 10000 pmol/mL in mouse liver homogenate (50 to 50000 pmol/g of mouse liver).

CCOC(=O)OC(C)OP(=O)(N[C@@H](C)C(=O)OC(C)C)OC[C@H]1O[C@@H](n2cnc3c(OC)nc(N)nc32)[C@](C)(F)[C@@H]1O (single isomer, unassigned) [Compound 15]
Percent Remaining, SIF [1]: 0%
Percent Remaining, HLS9 (1 hr) [2]: 0%
Percent Remaining, HIS9 (1 hr) [3]: 76%
MsH AUC (mouse hepatocytes): 218 pmol.hr/mill cells
MsH Cmax (mouse hepatocytes): 216 pmol/mill cells
Ms 2′-F, 2′-MeGTP AUC [4]: 900 pmol · hr/g at 1 μmol/kg
Ms Plasma 2′-F, 2′-MeG AUC [4]: 130 pmol · hr/mL at 1 μmol/kg
Ms Plasma 2′-F, 2′-MeG Cmax [4]: 16 pmol/mL at 1 μmol/kg

CCOC(=O)OC(C)OP(=O)(N[C@@H](C)C(=O)OC(C)C)OC[C@H]1O[C@@H](n2cnc3c(OC)nc(N)nc32)[C@](C)(F)[C@@H]1O (single isomer, unassigned) [Compound 14]
Percent Remaining, SIF [1]: 39%
Percent Remaining, HLS9 (1 hr) [2]: 0.7%
Percent Remaining, HIS9 (1 hr) [3]: 53%
MsH AUC (mouse hepatocytes): 8704 pmol.hr/mill cells
MsH Cmax (mouse hepatocytes): 7534 pmol/mill cells
Ms 2′-F, 2′-MeGTP AUC [4]: 1900 pmol · hr/g at 1 μmol/kg
Ms Plasma 2′-F, 2′-MeG AUC [4]: 150 pmol · hr/mL at 1 μmol/kg
Ms Plasma 2′-F, 2′-MeG Cmax [4]: 14 pmol/mL at 1 μmol/kg
